Test results: patent US6355799B1, “Substituted benzene compounds, process for their preparation, and herbicidal and defoliant compositions containing them” (ISK Americas Incorporated, priority 1997, dated 2002)

Key:
Type in all cases: in vivo
[1] = system: upland rice (Oryza sp., var. Tebonnet, RICE); experiment: Pre-emerge test, crop safety; details: pre-emerge, 14 days after application, scale 0-100
How it was run: (§1)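 Herbicidal damage is scored 0 (none) to 100 (complete plant death) two weeks after a simulated field spray. Rates span 15–1000 g ai/ha, delivered in acetone at 187 l/ha. For post-emergence treatments, plants have 2–3 leaves and the spray carries 0.25% v/v non-ionic surfactant.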

[2] = system: field corn (Zea mays L., var. Dekalb 535, CORN); experiment: Pre-emerge test, crop safety; details: pre-emerge, 14 days after application, scale 0-100
How it was run: as §1

[3] = system: upland rice (Oryza sp., var. Tebonnet, RICE); experiment: Post-emerge test, crop safety; details: post-emerge, 14 days after application, rating scale 0-100
How it was run: (§2)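 Sandy loam pots; pre-emerge: sown 1 d pre-spray, surface-watered after, then bottom-watered. Post-emerge: sown 8–21 d before, 2–3 leaf stage, + 0.25% v/v NIS, bottom-watered. Acetone, 187 l/ha track spray, 15–1000 g ai/ha. 0–100 injury score, day 14.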

[4] = system: field corn (Zea mays L., var. Dekalb 535, CORN); experiment: Post-emerge test, crop safety; details: post-emerge, 14 days after application, rating scale 0-100
How it was run: as §2

[5] = system: ivyleaf morningglory (Ipomoea hederacea, IPOHE); experiment: Pre-emerge test, greenhouse herbicide activity screening; details: pre-emerge, 14 days after application, scale 0-100
How it was run: as §2

[6] = system: lambsquarters (Chenopodium album, CHEAL); experiment: as above; details: pre-emerge, 14 days after application, scale 0-100
How it was run: as §2

[7] = system: sicklepod (Cassia obtusifolia, CASOB); experiment: as above; details: pre-emerge, 14 days after application, scale 0-100
How it was run: as §2

[8] = system: barnyardgrass (Echinochloa crus-galli, ECHCG); experiment: as above; details: pre-emerge, 14 days after application, scale 0-100
How it was run: as §2

[9] = system: green foxtail (Setaria viridis, SETVI); experiment: as above; details: pre-emerge, 14 days after application, scale 0-100
How it was run: as §2

[10] = system: velvetleaf (Abutilon theophrasti, ABUTH); experiment: as above; details: pre-emerge, 14 days after application, scale 0-100
How it was run: as §2

[11] = system: large crabgrass (Digitaria sanguinalis, DIGSA); experiment: as above; details: pre-emerge, 14 days after application, scale 0-100
How it was run: as §2

[12] = system: johnsongrass (Sorghum halepense, SORHA); experiment: as above; details: pre-emerge, 14 days after application, scale 0-100
How it was run: as §2

[13] = system: redroot pigweed (Amaranthus retroflexus, AMARE); experiment: as above; details: pre-emerge, 14 days after application, scale 0-100
How it was run: as §2

[14] = system: ivyleaf morningglory (Ipomoea hederacea, IPOHE); experiment: Post-emerge test, greenhouse herbicide activity screening; details: post-emerge, 14 days after application, rating scale 0-100
How it was run: (§3)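 Plants grown in 10 cm pots of sandy loam mix received acetone-dissolved compounds through a moving flat-fan nozzle. Doses ranged from 15 to 1000 g ai/ha. Pre-emerge pots were seeded one day earlier, post-emerge pots 8–21 days earlier. Fourteen days on, each pot was graded 0–100 for damage.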

[15] = system: lambsquarters (Chenopodium album, CHEAL); experiment: as above; details: post-emerge, 14 days after application, rating scale 0-100
How it was run: as §3

[16] = system: sicklepod (Cassia obtusifolia, CASOB); experiment: as above; details: post-emerge, 14 days after application, rating scale 0-100
How it was run: as §3

[17] = system: barnyardgrass (Echinochloa crus-galli, ECHCG); experiment: as above; details: post-emerge, 14 days after application, rating scale 0-100
How it was run: as §3

[18] = system: green foxtail (Setaria viridis, SETVI); experiment: as above; details: post-emerge, 14 days after application, rating scale 0-100
How it was run: as §3

[19] = system: velvetleaf (Abutilon theophrasti, ABUTH); experiment: as above; details: post-emerge, 14 days after application, rating scale 0-100
How it was run: as §3

[20] = system: redroot pigweed (Amaranthus retroflexus, AMARE); experiment: as above; details: post-emerge, 14 days after application, rating scale 0-100
How it was run: as §3

[21] = system: large crabgrass (Digitaria sanguinalis, DIGSA); experiment: as above; details: post-emerge, 14 days after application, rating scale 0-100
How it was run: as §3

[22] = system: johnsongrass (Sorghum halepense, SORHA); experiment: as above; details: post-emerge, 14 days after application, rating scale 0-100
How it was run: as §3

COc1c(Br)cc(F)c(-n2c(=O)cc(C(F)(F)F)n(C)c2=O)c1NC(=O)C=Cc1ccccc1 [2-177]
100: phytotoxicity rating CHEAL ([6]; 63 g ai/ha) | phytotoxicity rating CHEAL ([6]; 250 g ai/ha) | phytotoxicity rating ABUTH ([10]; 250 g ai/ha) | phytotoxicity rating AMARE ([13]; 63 g ai/ha) | phytotoxicity rating AMARE ([13]; 250 g ai/ha) | IPOHE phytotoxicity rating ([14]; 63 g ai/ha) | IPOHE phytotoxicity rating ([14]; 250 g ai/ha) | CHEAL phytotoxicity rating ([15]; 63 g ai/ha) | CHEAL phytotoxicity rating ([15]; 250 g ai/ha) | CASOB phytotoxicity rating ([16]; 63 g ai/ha) | CASOB phytotoxicity rating ([16]; 250 g ai/ha) | ABUTH phytotoxicity rating ([19]; 63 g ai/ha) | ABUTH phytotoxicity rating ([19]; 250 g ai/ha) | AMARE phytotoxicity rating ([20]; 63 g ai/ha) | AMARE phytotoxicity rating ([20]; 250 g ai/ha)
50: RICE phytotoxicity rating (crop damage) ([3]; 63 g ai/ha) | DIGSA phytotoxicity rating ([21]; 250 g ai/ha)
30: phytotoxicity rating DIGSA ([11]; 63 g ai/ha) | phytotoxicity rating SORHA ([12]; 250 g ai/ha) | DIGSA phytotoxicity rating ([21]; 63 g ai/ha) | SORHA phytotoxicity rating ([22]; 63 g ai/ha)
40: phytotoxicity rating IPOHE ([5]; 63 g ai/ha) | phytotoxicity rating CASOB ([7]; 250 g ai/ha) | phytotoxicity rating ECHCG ([8]; 250 g ai/ha) | phytotoxicity rating SETVI ([9]; 63 g ai/ha) | ECHCG phytotoxicity rating ([17]; 250 g ai/ha) | SORHA phytotoxicity rating ([22]; 250 g ai/ha)
10: phytotoxicity rating RICE (crop damage) ([1]; 63 g ai/ha) | phytotoxicity rating CORN (crop damage) ([2]; 250 g ai/ha)
60: RICE phytotoxicity rating (crop damage) ([3]; 250 g ai/ha) | SETVI phytotoxicity rating ([18]; 250 g ai/ha)
90: phytotoxicity rating IPOHE ([5]; 250 g ai/ha)
45: SETVI phytotoxicity rating ([18]; 63 g ai/ha)
70: phytotoxicity rating SETVI ([9]; 250 g ai/ha) | phytotoxicity rating ABUTH ([10]; 63 g ai/ha) | phytotoxicity rating DIGSA ([11]; 250 g ai/ha)
0: phytotoxicity rating CORN (crop damage) ([2]; 63 g ai/ha) | phytotoxicity rating CASOB ([7]; 63 g ai/ha) | phytotoxicity rating ECHCG ([8]; 63 g ai/ha) | phytotoxicity rating SORHA ([12]; 63 g ai/ha)
20: phytotoxicity rating RICE (crop damage) ([1]; 250 g ai/ha) | CORN phytotoxicity rating (crop damage) ([4]; 250 g ai/ha) | ECHCG phytotoxicity rating ([17]; 63 g ai/ha)
15: CORN phytotoxicity rating (crop damage) ([4]; 63 g ai/ha)

COc1c(Br)cc(F)c(-n2c(=O)cc(C(F)(F)F)n(C)c2=O)c1N(C(=O)C=Cc1ccccc1)C(=O)C=Cc1ccccc1 [2-178]
50: ABUTH phytotoxicity rating ([19]; 250 g ai/ha) | AMARE phytotoxicity rating ([20]; 63 g ai/ha)
0: phytotoxicity rating RICE (crop damage) ([1]; 63 g ai/ha) | phytotoxicity rating RICE (crop damage) ([1]; 250 g ai/ha) | phytotoxicity rating CORN (crop damage) ([2]; 63 g ai/ha) | phytotoxicity rating CORN (crop damage) ([2]; 250 g ai/ha) | RICE phytotoxicity rating (crop damage) ([3]; 63 g ai/ha) | RICE phytotoxicity rating (crop damage) ([3]; 250 g ai/ha) | CORN phytotoxicity rating (crop damage) ([4]; 63 g ai/ha) | CORN phytotoxicity rating (crop damage) ([4]; 250 g ai/ha) | phytotoxicity rating IPOHE ([5]; 63 g ai/ha) | phytotoxicity rating IPOHE ([5]; 250 g ai/ha) | phytotoxicity rating CHEAL ([6]; 250 g ai/ha) | phytotoxicity rating CASOB ([7]; 63 g ai/ha) | phytotoxicity rating CASOB ([7]; 250 g ai/ha) | phytotoxicity rating ECHCG ([8]; 63 g ai/ha) | phytotoxicity rating ECHCG ([8]; 250 g ai/ha) | phytotoxicity rating SETVI ([9]; 63 g ai/ha) | phytotoxicity rating SETVI ([9]; 250 g ai/ha) | phytotoxicity rating ABUTH ([10]; 63 g ai/ha) | phytotoxicity rating ABUTH ([10]; 250 g ai/ha) | phytotoxicity rating DIGSA ([11]; 63 g ai/ha) | phytotoxicity rating DIGSA ([11]; 250 g ai/ha) | phytotoxicity rating SORHA ([12]; 63 g ai/ha) | phytotoxicity rating SORHA ([12]; 250 g ai/ha) | phytotoxicity rating AMARE ([13]; 63 g ai/ha) | phytotoxicity rating AMARE ([13]; 250 g ai/ha) | CASOB phytotoxicity rating ([16]; 63 g ai/ha) | CASOB phytotoxicity rating ([16]; 250 g ai/ha) | ECHCG phytotoxicity rating ([17]; 63 g ai/ha) | ECHCG phytotoxicity rating ([17]; 250 g ai/ha) | SETVI phytotoxicity rating ([18]; 63 g ai/ha) | SETVI phytotoxicity rating ([18]; 250 g ai/ha) | DIGSA phytotoxicity rating ([21]; 63 g ai/ha) | DIGSA phytotoxicity rating ([21]; 250 g ai/ha) | SORHA phytotoxicity rating ([22]; 63 g ai/ha) | SORHA phytotoxicity rating ([22]; 250 g ai/ha)
20: phytotoxicity rating CHEAL ([6]; 63 g ai/ha) | IPOHE phytotoxicity rating ([14]; 250 g ai/ha)
40: CHEAL phytotoxicity rating ([15]; 250 g ai/ha) | ABUTH phytotoxicity rating ([19]; 63 g ai/ha)
70: AMARE phytotoxicity rating ([20]; 250 g ai/ha)
30: IPOHE phytotoxicity rating ([14]; 63 g ai/ha) | CHEAL phytotoxicity rating ([15]; 63 g ai/ha)
